This is an account of results in US10035777B2, “Heterocyclic kinase inhibitors” (priority 2014, dated 2018).

For the first test, the target named is GST-Xa-hAAK1 (Homo sapiens (Human), UniProt Q2M2I8). Put plainly: biochemical.
GST-Xa-hAAK1, sequence (Q2M2I8 whole entry): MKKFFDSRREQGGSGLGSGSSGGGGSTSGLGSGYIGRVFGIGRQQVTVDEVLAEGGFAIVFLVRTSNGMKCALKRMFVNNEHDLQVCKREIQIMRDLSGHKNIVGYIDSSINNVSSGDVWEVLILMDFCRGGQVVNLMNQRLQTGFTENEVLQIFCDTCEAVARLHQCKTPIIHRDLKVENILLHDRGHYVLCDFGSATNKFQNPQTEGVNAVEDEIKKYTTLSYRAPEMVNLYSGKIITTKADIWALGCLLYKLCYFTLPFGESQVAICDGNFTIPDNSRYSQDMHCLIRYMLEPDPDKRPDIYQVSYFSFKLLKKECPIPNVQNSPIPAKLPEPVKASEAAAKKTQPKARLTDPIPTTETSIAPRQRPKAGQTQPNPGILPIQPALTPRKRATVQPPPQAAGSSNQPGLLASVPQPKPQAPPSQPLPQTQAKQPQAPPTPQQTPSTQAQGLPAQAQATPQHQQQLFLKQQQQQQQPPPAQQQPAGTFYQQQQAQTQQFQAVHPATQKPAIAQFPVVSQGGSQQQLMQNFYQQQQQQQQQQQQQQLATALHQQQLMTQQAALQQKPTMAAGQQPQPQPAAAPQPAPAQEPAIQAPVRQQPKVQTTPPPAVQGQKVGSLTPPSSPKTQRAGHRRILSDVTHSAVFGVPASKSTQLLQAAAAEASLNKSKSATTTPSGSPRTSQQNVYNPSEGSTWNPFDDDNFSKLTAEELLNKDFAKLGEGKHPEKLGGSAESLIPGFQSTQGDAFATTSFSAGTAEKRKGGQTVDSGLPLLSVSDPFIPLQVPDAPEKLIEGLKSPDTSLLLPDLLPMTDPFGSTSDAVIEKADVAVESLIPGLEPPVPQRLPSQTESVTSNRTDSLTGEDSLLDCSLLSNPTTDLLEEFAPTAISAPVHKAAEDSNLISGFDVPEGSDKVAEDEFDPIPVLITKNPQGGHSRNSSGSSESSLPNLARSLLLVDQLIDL
Conditions: not given
As for the experimental part: The assays were performed in U-bottom 384-well plates. […] The reactions were initiated by the combination of bacterially expressed, GST-Xa-hAAK1 with substrates and test compounds. The reactions were incubated at room temperature for 3 hours and terminated by adding 60 μl of 35 mM EDTA buffer to each sample. The reactions were analyzed on the Caliper LabChip 3000 (Caliper, Hopkinton, Mass.) by electrophoretic separation of the fluorescent substrate and phosphorylated product. […] Compounds were dissolved at 10 mM in dimethylsulfoxide (DMSO) and evaluated at eleven concentrations. IC50 values were derived by non-linear regression analysis.
Turning to `CC(C(N)c1nc2ccc(-c3ccncc3)cc2[nH]1)C(F)(F)F` (single isomer, unassigned) [Example 52, 3,3,3-trifluoro-2-methyl-1-(6-(pyridin-4-yl)-1H-benzo[d]imidazol-2-yl)propan-1-amine], the 50% inhibitory concentration (IC50) was 232 nM.

Consider `CCn1c([C@H](N)CC(C)C)nc2ccc(-c3ccncc3)cc21` [Example 33, (R)-1-(1-ethyl-6-(pyridin-4-yl)-1H-benzo[d]imidazol-2-yl)-3-methylbutan-1-amine], for which the IC50 came out at 108 nM. The same measure, in the same setting: the result for `N[C@H](CC1CC1)c1nc2cc(-c3ccncc3)ccc2[nH]1` [Example 70, (R)-2-cyclopropyl-1-(5-(pyridin-4-yl)-1H-benzo[d]imidazol-2-yl) ethanamine] reads 61 nM; that for `CC(C)N1CC(c2nc3ccc(-c4ccncc4)cc3[nH]2)CC1=O` (stereo not shown) [Example 51, 1-isopropyl-4-(6-(pyridin-4-yl)-1H-benzo[d]imidazol-2-yl)pyrrolidin-2-one], 783 nM; that for `CC(C)CC(N)c1nc2ccc(-c3ccncc3)cc2s1` (stereo not shown) [Example 98, 3-methyl-1-(6-(pyridin-4-yl)benzo[d]thiazol-2-yl)butan-1-amine], 44 nM. On the same count and under the same terms, the result for `COc1cc2[nH]c([C@H](N)C3CCCC3)nc2cc1-c1ccncc1` [Example 82, (R)-cyclopentyl(6-methoxy-5-(pyridin-4-yl)-1H-benzo[d]imidazol-2-yl)methanamine] reads 1800 nM. On the same count and under the same terms, the result for `CC(c1nc2cc(-c3ccncc3)ccc2[nH]1)N1CCOCC1` (stereo not shown) [Example 79, 4-(1-(5-(pyridin-4-yl)-1H-benzo[d]imidazol-2-yl)ethyl)morpholine] reads 591 nM. Turning to `CC(C)C[C@@H](NC(=O)C(F)(F)F)c1nc2cc(-c3ccncc3)ccc2[nH]1` [Example 80, (R)-2,2,2-trifluoro-N-(3-methyl-1-(5-(pyridin-4-yl)-1H-benzo[d]imidazol-2-yl)butyl)acetamide], the IC50 was 697 nM. For the molecule `CC(C)C[C@H](N)c1nc2cc(-c3ccncc3)ccc2s1` [Example 97, (S)-3-methyl-1-(5-(pyridin-4-yl)benzo[d]thiazol-2-yl) butan-1-amine], the IC50 came to 116 nM. Turning to `CC(C)OCc1nc2ccc(-c3ccncc3)cc2[nH]1` [Example 54, 2-(isopropoxymethyl)-6-(pyridin-4-yl)-1H-benzo[d]imidazole], the IC50 came to 785 nM. With `CC1CCCC(c2nc3ccc(-c4ccncc4)cc3[nH]2)C1` (stereo not shown) [Example 81, 2-(3-methylcyclohexyl)-6-(pyridin-4-yl)-1H-benzo[d]imidazole], the IC50 is 1430 nM. Still for that read-out and setting: to `N[C@@H](c1nc2cc(-c3ccncc3)ccc2[nH]1)C1CCOCC1` [Example 77, (R)-(5-(pyridin-4-yl)-1H-benzo[d]imidazol-2-yl) (tetrahydro-2H-pyran-4-yl) methanamine] belongs 436 nM; to `Cn1nc(C(C)(C)C)cc1-c1nc2ccc(-c3ccncc3)cc2[nH]1` [Example 50, 2-(3-(tert-butyl)-1-methyl-1H-pyrazol-5-yl)-6-(pyridin-4-yl)-1H-benzo[d]imidazole], 1730 nM; to `CC(C)CC(CN)c1nc2cc(-c3ccncc3)ccc2[nH]1` (stereo not shown) [Example 67, 4-methyl-2-(5-(pyridin-4-yl)-1H-benzo[d]imidazol-2-yl) pentan-1-amine], 49 nM. On the same count and under the same terms, to `CC1(C)CC1c1nc2ccc(-c3ccncc3)cc2[nH]1` (stereo not shown) [Example 49, 2-(2,2-dimethylcyclopropyl)-6-(pyridin-4-yl)-1H-benzo[d]imidazole] belongs 338 nM. Same read-out and setting: the result for `COc1cc(-c2ccncc2)cc2nc([C@H](N)CC(C)C)[nH]c12` [Example 22, (R)-1-(7-methoxy-5-(pyridin-4-yl)-1H-benzo[d]imidazol-2-yl)-3-methylbutan-1-amine] reads 52 nM.

Still in this test, the particulars now being: ATP 22 μM; GST-Xa-hAAK1 3.5 nM; room temperature for 3 hours; Caliper LabChip 3000; read-out: AAK1 IC50.
With `CC(C)CC(CN)c1nc2cc(-c3cnco3)ccc2[nH]1` (stereo not shown) [Example 65, 4-methyl-2-(5-(oxazol-5-yl)-1H-benzo[d]imidazol-2-yl)pentan-1-amine], the IC50 was 26 nM.

For the molecule `CC(C)CC(C)c1nc2ccc(-c3ccncc3)cc2o1` (stereo not shown) [Example 87, 2-(4-methylpentan-2-yl)-6-(pyridin-4-yl)benzo[d]oxazole], the IC50 amounted to 92 nM.

Turning to `CN[C@H](CC(C)C)c1nc2cc(-c3ccnc(N)c3)ccc2[nH]1` [Example 59, (R)-4-(2-(3-methyl-1-(methylamino)butyl)-1H-benzo[d]imidazol-5-yl)pyridin-2-amine], the IC50 turned out to be 7 nM. On the same count and under the same terms, to `CC(C)C[C@@H](N)c1nc2cc(-c3cc(F)nc(F)c3)ccc2[nH]1` [Example 17, (R)-1-(5-(2,6-difluoropyridin-4-yl)-1H-benzo[d]imidazol-2-yl)-3-methylbutan-1-amine] belongs 3940 nM; to `NC(CCC(F)(F)F)c1nc2ccc(-c3cnco3)cc2[nH]1` (stereo not shown) [Example 105, 4,4,4-trifluoro-1-(6-(oxazol-5-yl)-1H-benzo[d]imidazol-2-yl)butan-1-amine], 150 nM. Take `CC(C)C[C@@H](N)c1nc2cc(-c3ncnc4[nH]ccc34)ccc2[nH]1` [Example 8, (R)-1-(5-(7H-pyrrolo[2,3-d]pyrimidin-4-yl)-1H-benzo[d]imidazol-2-yl)-3-methylbutan-1-amine]: the IC50 was determined as 4 nM. As for `CC(C)C[C@@H](N)c1nc2cc(-c3ccnc(F)c3)ccc2[nH]1` [Example 12, (R)-1-(5-(2-fluoropyridin-4-yl)-1H-benzo[d]imidazol-2-yl)-3-methylbutan-1-amine], the IC50 is 148 nM. In the case of `NC(CCC(F)(F)F)c1nc2cc(-c3ccncc3)ccc2o1` (stereo not shown) [Example 93, 4,4,4-trifluoro-1-(5-(pyridin-4-yl)benzo[d]oxazol-2-yl)butan-1-amine], the IC50 was determined as 136 nM. As for `CC(C)C[C@H](N)c1nc2ccc(-c3ccncc3)cc2[nH]1` [Example 2, (S)-3-methyl-1-(6-(pyridin-4-yl)-1H-benzo[d]imidazol-2-yl)butan-1-amine], the IC50 turned out to be 53 nM.

As for `Cc1n[nH]c(C)c1-c1ccc2[nH]c([C@H](N)CC(C)C)nc2c1` [Example 19, (R)-1-(5-(3,5-dimethyl-1H-pyrazol-4-yl)-1H-benzo[d]imidazol-2-yl)-3-methylbutan-1-amine], the IC50 came out at 41 nM. Turning to `COc1cc(-c2ccc3[nH]c([C@H](N)CC(C)C)nc3c2)c(F)cn1` [Example 20, (R)-1-(5-(5-fluoro-2-methoxypyridin-4-yl)-1H-benzo[d]imidazol-2-yl)-3-methylbutan-1-amine], the IC50 amounted to 489 nM.

Take `CC(C)C[C@@H](N)c1nc2cc(-c3ccnc4ccccc34)ccc2[nH]1` [Example 9, (R)-3-methyl-1-(5-(quinolin-4-yl)-1H-benzo[d]imidazol-2-yl)butan-1-amine]: the IC50 was 13 nM. The same measure, in the same setting: the result for `COc1cc(-c2ccc3[nH]c(CCC(C)C)nc3c2)ccn1` [Example 57, 2-isopentyl-5-(2-methoxypyridin-4-yl)-1H-benzo[d]imidazole] reads 1550 nM; that for `CC(C)C[C@@H](N)c1nc2ccc(-c3ccncc3)cc2n1C` [Example 42, (R)-3-methyl-1-(1-methyl-6-(pyridin-4-yl)-1H-benzo[d]imidazol-2-yl)butan-1-amine], 159 nM. For `COc1cnccc1-c1cc(OC)c2[nH]c([C@H](N)CC(C)C)nc2c1` [Example 23, (R)-1-(7-methoxy-5-(3-methoxypyridin-4-yl)-1H-benzo[d]imidazol-2-yl)-3-methylbutan-1-amine], the IC50 worked out at 553 nM. Consider `CCn1c([C@H](N)CC(C)C)nc2ccc(-c3cn[nH]c3)cc21` [Example 34, (R)-1-(1-ethyl-6-(1H-pyrazol-4-yl)-1H-benzo[d]imidazol-2-yl)-3-methylbutan-1-amine], for which the 50% inhibitory concentration (IC50) worked out at 98 nM.

For `CC(C(N)c1nc2ccc(-c3ccncc3)cc2[nH]1)C(F)(F)F` (single isomer, unassigned) [Example 53, 3,3,3-trifluoro-2-methyl-1-(6-(pyridin-4-yl)-1H-benzo[d]imidazol-2-yl)propan-1-amine], the IC50 turned out to be 521 nM. `COc1cnccc1-c1ccc2[nH]c(CCC(C)C)nc2c1` [Example 56, 2-isopentyl-5-(3-methoxypyridin-4-yl)-1H-benzo[d]imidazole]: the IC50 worked out at 620 nM. The same measure, in the same setting: the result for `CCCn1c([C@H](N)CC(C)C)nc2ccc(-c3ccncc3)cc21` [Example 43, (R)-3-methyl-1-(1-propyl-6-(pyridin-4-yl)-1H-benzo[d]imidazol-2-yl)butan-1-amine] reads 103 nM. For `COCCn1c([C@H](N)CC(C)C)nc2ccc(-c3cnco3)cc21` [Example 39, (R)-1-(1-(2-methoxyethyl)-6-(oxazol-5-yl)-1H-benzo[d]imidazol-2-yl)-3-methylbutan-1-amine], the IC50 came to 6740 nM.

`CC(C)CC(C)(N)c1nc2ccc(-c3cnco3)cc2[nH]1` (stereo not shown) [Example 103, 4-methyl-2-(6-(oxazol-5-yl)-1H-benzo[d]imidazol-2-yl)pentan-2-amine]: the IC50 was determined as 158 nM. On the same count and under the same terms, the result for `COCCn1c([C@H](N)CC(C)C)nc2ccc(-c3ccncc3)cc21` [Example 38, (R)-1-(1-(2-methoxyethyl)-6-(pyridin-4-yl)-1H-benzo[d]imidazol-2-yl)-3-methylbutan-1-amine] reads 531 nM.

The test is the same for the next values; noted with them: read-out: AAK1 IC50.
For the molecule `CN[C@H](CC(C)C)c1nc2cc(-c3ccnnc3)ccc2[nH]1` [Example 109, (R)-N,3-dimethyl-1-(5-(pyridazin-4-yl)-1H-benzo[d]imidazol-2-yl)butan-1-amine], the IC50 is 428 nM.

Regarding `COc1cc(-c2cc3nc([C@H](N)CC(C)C)[nH]c3cc2OC)ccn1` [Example 28, (R)-1-(6-methoxy-5-(2-methoxypyridin-4-yl)-1H-benzo[d]imidazol-2-yl)-3-methylbutan-1-amine], the concentration for half-maximal inhibition (IC50) was determined as 2000 nM.
